Data: publication PMC4008261, “Rewiring of regenerated axons by combining treadmill training with semaphorin3A inhibition” (Molecular Brain, 2014)

Tests used:
[1] = system: SCT adult rats; assay: Axonal regeneration after SCT (GAP43, 5-HT/GFAP immunostaining, BDA tracing); assay type: in vivo, rat; details: for number of GAP43 axons versus control: especially 1 mm caudal to the injury epicenter
Procedure: (§1) Rats were randomly divided into the following three experimental groups: 1) untrained + placebo, 2) untrained + SM-345431 and 3) trained + SM-345431. SCT was performed, and SM-345431 or placebo was administered at the lesion site via the newly developed DDS, which is described in detail below. Starting 1 week post-injury, treadmill training commenced with a BSS. Kinematic tests were performed monthly for 3 months after SCT using a rodent robotic device (Rodent robot 3000, Robomedica Inc.) that primarily assessed the performance of plantar stepping on a treadmill. Treadmill training was continued throughout the experimental period.
A total of 53 adult female Sprague-Dawley rats (200-250 g, 10-12 weeks old) were used in this study (3 rats died during the experimental period and were excluded from the statistical analysis). All procedures were approved by the experimental animal care committee of Keio University, School of Medicine and Murayama Medical Center (approval #12-8). All rats were anesthetized with an intraperitoneal injection of ketamine (100 mg/kg)/xylazine (10 mg/kg). The spinal cord at the level of the T10 lamina was exposed by T10 laminectomy, and the dorsal dura mater was opened. The exposed spinal cord was cut along the inner edge of the vertebra with a sharp micro-scissor. Two more cuts were made at the gap of the transected spinal cord by a scalpel to ensure total transection. SM-345431 or placebo was administered to the transected site via the newly developed DDS as described in detail below (Figure 1G-I). After these procedures, the back muscles and skin were closed. Rats were kept warm in an incubator (37°C) after surgery. To prevent dehydration in the rats, 10 ml of saline was subcutaneously injected daily until day 7. Ampicillin (0.4 g/kg) was also injected intramuscularly daily to prevent infection until day 7. The bladder was evacuated manually until autonomous emptying of the bladder was achieved. The re-transection procedure was performed at the same level as the primary SCT (15 rats total; 5 rats from each group). Kinematic data were recorded using similar procedures prior to re-transection surgery (on the same day) and on the day following re-transection surgery. For CST tracing, 10% BDA was injected as follows. Nine weeks after SM-345431 or placebo administration, BDA (10000 MW, Molecular Probes) was injected into six different sites of the sensorimotor cortices of the rats under general anesthesia (site 1: 2.0 mm lateral, 0 mm to bregma; site 2: 2.0 mm lateral, 2 mm posterior to bregma; site 3: 2.0 mm lateral, 4 mm posterior to bregma; site 4: 4 mm lateral, 0 mm to bregma; site 5: 4 mm lateral, 2 mm posterior to bregma and site 6: 4 mm lateral, 4 mm posterior to bregma). For each site, injections were performed at two different depths (1.2 mm and 1.6 mm), and 3 μl of 10% BDA was injected at a rate of 0.15 μl/min using a micro-injector. Three weeks after the BDA injection, rats were sacrificed and used for immunohistochemistry.
A novel matrix silicone preparation was developed to allow continuous drug delivery at the site of injury. The amount of drug released from this matrix silicone preparation in vitro was measured as described in Figure 1. Matrix silicone sheets (0.3 mm thick) containing SM-345431 were trimmed into 3-mm-square pieces to fit into the opened dura. After SCT, one piece of silicone sheet was placed on the transected spinal cord gap so that it could act on the spinal cord directly.
Twelve weeks after SCT, rats were deeply anaesthetized by an intraperitoneal injection of 14% chloral hydrate and then perfused intracardially with 4% paraformaldehyde (PFA) in 0.1 M phosphate-buffered saline (PBS). The spinal cord tissues were dissected and post-fixed in 4% PFA (24 h) and placed in 10% sucrose in 0.1 M PBS (24 h) followed by 30% sucrose in 0.1 M PBS (24 h). All the rats other than 3 rats died during the experimental period were used for the histological analysis. […]

[2] = system: SCT adult rats; assay: Angiogenesis after SCT (RECA-1 immunostaining); assay type: in vivo, rat; details: for total immunostained area of vessels with lumen diameters larger than 20 μm versus control: 3 mm and 1 mm rostral/caudal to the lesion epicenter
Procedure: as §1
A total of 53 adult female Sprague-Dawley rats (200-250 g, 10-12 weeks old) were used in this study (3 rats died during the experimental period and were excluded from the statistical analysis). All procedures were approved by the experimental animal care committee of Keio University, School of Medicine and Murayama Medical Center (approval #12-8). All rats were anesthetized with an intraperitoneal injection of ketamine (100 mg/kg)/xylazine (10 mg/kg). The spinal cord at the level of the T10 lamina was exposed by T10 laminectomy, and the dorsal dura mater was opened. The exposed spinal cord was cut along the inner edge of the vertebra with a sharp micro-scissor. Two more cuts were made at the gap of the transected spinal cord by a scalpel to ensure total transection. SM-345431 or placebo was administered to the transected site via the newly developed DDS as described in detail below (Figure 1G-I). After these procedures, the back muscles and skin were closed. Rats were kept warm in an incubator (37°C) after surgery. To prevent dehydration in the rats, 10 ml of saline was subcutaneously injected daily until day 7. Ampicillin (0.4 g/kg) was also injected intramuscularly daily to prevent infection until day 7. The bladder was evacuated manually until autonomous emptying of the bladder was achieved. […] Kinematic data were recorded using similar procedures prior to re-transection surgery (on the same day) and on the day following re-transection surgery. […]

[3] = biological target: T1, semaphorin3A (Homo sapiens, UniProt Q14563); assay: Growth cone collapse assay, E14 rat DRG; assay type: cell-based; details: read-out: semaphorin3A inhibiting activity, IC50
T1 sequence (Q14563 21-771): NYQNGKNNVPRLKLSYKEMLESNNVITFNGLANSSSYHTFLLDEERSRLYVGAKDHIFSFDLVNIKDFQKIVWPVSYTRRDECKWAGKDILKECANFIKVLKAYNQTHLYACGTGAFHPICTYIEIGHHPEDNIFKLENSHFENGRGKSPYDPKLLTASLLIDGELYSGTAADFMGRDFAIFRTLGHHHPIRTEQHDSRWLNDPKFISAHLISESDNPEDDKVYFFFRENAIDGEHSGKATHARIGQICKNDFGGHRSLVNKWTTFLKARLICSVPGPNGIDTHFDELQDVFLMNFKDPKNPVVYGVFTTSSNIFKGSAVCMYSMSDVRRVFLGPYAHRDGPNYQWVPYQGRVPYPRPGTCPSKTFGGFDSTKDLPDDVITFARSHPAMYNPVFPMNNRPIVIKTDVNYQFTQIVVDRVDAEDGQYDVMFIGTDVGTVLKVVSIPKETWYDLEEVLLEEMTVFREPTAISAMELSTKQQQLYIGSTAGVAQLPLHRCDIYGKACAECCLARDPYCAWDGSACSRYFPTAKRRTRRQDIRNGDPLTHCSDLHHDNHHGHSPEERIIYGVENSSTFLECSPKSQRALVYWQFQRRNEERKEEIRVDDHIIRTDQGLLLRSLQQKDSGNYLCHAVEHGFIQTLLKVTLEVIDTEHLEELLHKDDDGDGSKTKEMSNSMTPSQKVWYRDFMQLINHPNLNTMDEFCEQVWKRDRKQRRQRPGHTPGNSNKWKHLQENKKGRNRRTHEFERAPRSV
Procedure: The growth cone collapse assay and collagen co-culture experiments were performed as previously described. To examine the effects of SM-345431-silicone, small pieces (2 × 1 × 0.3 mm; approximately 1 mg containing 1 μg of SM-345431) of the SM-345431-silicone or control-silicone were placed in a collagen gel adjacent to E8 chick DRGs and COS7 cell aggregates, as shown in Figure 1C.

[4] = SM-345431 combined with treadmill training
[5] = SM-345431 via silicone DDS alone

CC(=O)c1cc2c(=O)c3c(C(=O)O)c(O)c(O)cc3oc2c(C(C)=O)c1-c1coc2cc(O)c(O)c(C(=O)O)c2c1=O [SM-345431, Vinaxanthone]
5-HT-positive axons penetrating the GFAP-negative scar tissue versus control [1, 4]: significantly more 5-HT-positive axons penetrated the GFAP-negative scar tissue area | CST axon regeneration (BDA tracing) [1, 4]: no clear CST regeneration beyond the lesion epicenter was observed | number of GAP43 axons versus control [1, 4]: significantly increased | 5-HT-positive axons penetrating the GFAP-negative scar tissue versus control [1, 5]: significantly more 5-HT-positive axons penetrated the GFAP-negative scar tissue area | CST axon regeneration (BDA tracing) [1, 5]: no obvious CST regeneration beyond the lesion epicenter was observed | number of GAP43 axons versus control [1, 5]: significantly increased | total immunostained area of vessels with lumen diameters larger than 20 μm versus control ([2]; SM-345431 alone): significantly increased | total immunostained area of vessels with lumen diameters larger than 20 μm versus control [2, 4]: significantly increased | RECA-1-positive areas ([2]; SM-345431 combined with treadmill training, 3 mm caudal to the lesion epicenter, P < 0.05): significantly increased | IC50 [3]: 100 to 200 nM
